Laboratory results from patent US12161738B2, “Deodorant compositions” (The Procter & Gamble Company, priority 2019, dated 2024).

How the values were obtained:
[1] = pH of various magnesium salts in a water solution; type: physicochemical; settings: 12% in water
Procedure: The pH of magnesium carbonate, partially carbonated magnesium hydroxide, magnesium hydroxide and magnesium oxide were taken in a water solution. The pH values were recorded as follows in Table 4.

[2] = test system: Corynebacterium mucofaciens (clinical isolate); experiment: Tier 1 Anaerobic MIC Assay; type: cell-based; settings: raw material, BHI with 1% Tween 80, 37° C. overnight, O.D. 600
Procedure: (§1) Tier 1 Anaerobic MIC Assay
(§2) The data in Table 1 above was generated with the following test method. The purpose of this assay is to determine if a compound or formulation has an antimicrobial effect in vitro.
(§3) Procedure: (All procedures performed in anaerobic chamber except where noted)
(§4) Incubator at 37° C.; 20-200 ul 12 channel pipette; 5-50 ul 12 channel pipette; 1250 ul 8 channel Thermo Scientific Matrix pipette; 96 well plate shaker (located in incubator); Beckman Coulter deep well cap mat #267005; Beckman Coulter deep 96 well plates #267007; Falcon 96 well tissue culture plates #353072; Vortexer; Culture tubes/caps Disposable sterile gloves; Sterile petri dishes; Standard microbiological lab equipment (sterile pipettes, syringes, tips, loops, etc.); Glass bottles/flasks for media; Autoclave; Parafilm; Spectrophotometer.
(§5) BHI agar supplemented with 1% Tween 80
(§6) BHI media supplemented with 1% Tween 80
Corynebacterium mucofaciens (clinical isolate)
(§7) Prior to testing streak organisms for isolation on BHI with 1% Tween 80 plates, wrap with parafilm and place in 37° C. incubator. When isolated colonies appear remove one representative colony from each plate and place each in 5 ml of BHI with 1% Tween 80 media. […]
(§8) In row A of a 96 deep well plate pipette 180 ul of sterile BHI with 1% Tween 80 as a negative growth control. […] The next day read the O.D. 600 on a plate reader. […]

[3] = test system: Staphylococcus epidermidis (clinical isolate); experiment: Tier 1 Anaerobic MIC Assay; type: cell-based; settings: raw material, BHI with 1% Tween 80, 37° C. overnight, O.D. 600
Procedure: as §1, §2, §3, §4, §5, §6
Staphylococcus epidermidis (clinical isolate)
as §7, §8

| SMILES | pH in water 12% Solution [1] | pH in water 12% Solution ([1]; listed as Magnesium oxide) | microbial inhibition concentration (MIC), C. mucofaciens [2] [ppm] | microbial inhibition concentration (MIC), S. epidermidis [3] [ppm] |
| --- | --- | --- | --- | --- |
| O=C([O-])[O-].[Mg+2] [Magnesium Carbonate] | 9.6 | – | – | – |
| [Mg+2].[OH-].[OH-] [Magnesium Hydroxide] | 10 | – | – | – |
| [O]=[Mg] [Magnesium Oxide] | 10.8 | highest pH observed | – | – |
| Cc1cc(CC(C)CC(C)(C)C)n(O)c(=O)c1.NCCO (stereo not drawn) [piroctone olamine] | – | – | <5 | 10 |
